# Results from patent publication US20250026747A1, “COLIBACTIN DERIVATIVES AND METHODS OF TREATING, AMELIORATING, AND/OR PREVENTING CANCER” (priority 2021, published 2025).
# System: linearized pUC19 DNA
# Assay: DNA cross-linking assay with linearized pUC19 DNA, denaturing agarose gel electrophoresis
# Type: biochemical
# Settings: for DNA interstrand cross-link (ICL) formation: linearized pUC19 DNA
# Description: FIGS. 6A-6C depict the DNA crosslinking ability of several compounds according to some embodiments. The DNA cross-linking assays employ linear pUC19 DNA. DMSO was used as vehicle (negative control), and 100 μM cisplatin was used as positive controls. The DNA was analyzed by 0.4% NaOH denaturing and agarose gel electrophoresis (90 V, 1.5 h). FIG. 6A depicts the DNA cross-linking comparison of colibactin 770 (3a), stable colibactin 742 (4), and its linear precursor 9 at pH 5.0. FIG. 6B depicts the comparison of the relative DNA cross-linking abilities of colibactin 742 (4) and its linear precursor 9 at pH 5.0. FIG. 6C depicts the comparison of the relative DNA cross-linking abilities of colibactin 742 (4) and its linear precursor 9 at pH 7.0.
# FIG. 10 depicts the DNA cross-linking assay employing linear pUC19 DNA and synthetic colibactin (3), 9, and colibactin 742 (4) according to some embodiments. Specifically, 5% DMSO was used as vehicle (negative control), and 100 μM cisplatin was used as positive control. DNA ladder (Lane #1); 5% DMSO (Lane #2); 100 μM cisplatin (Lane #3); 200 μM colibactin (3) (Lane #4); 100 μM colibactin (3) (Lane #5); 10 μM colibactin (3) (Lane #6); 1 μM colibactin (3) (Lane #7); 200 μM 9 (Lane #8); 100 μM 9 (Lane #9); 10 μM 9 (Lane #10); 1 μM 9 (Lane #11); 200 μM colibactin 742 (4) (Lane #12); 100 μM colibactin 742 (4) (Lane #13); 10 μM colibactin 742 (4) (Lane #14); 1 μM colibactin 742 (4) (Lane #15). Conditions (Lane #3): linearized pUC19 DNA (15.4 μM in base pairs), 5% DMSO (vehicle), 100 μM cisplatin, 10 mM citric buffer, pH 5.0, 4 h, 37° C. Conditions (Lanes #4-#7): linearized pUC19 DNA (15.4 μM in base pairs), colibactin (3) (200 μM-1 μM), 5% DMSO, 10 mM citric buffer, pH 5.0, 4 h, 37° C. Conditions (Lanes #8-#11): linearized pUC19 DNA (15.4 μM in base pairs), 9 (200 μM-1 μM), 5% DMSO, 10 mM citric buffer, pH 5.0, 4 h, 37° C. Conditions (Lanes #12-#15): linearized pUC19 DNA (15.4 μM in base pairs), colibactin 742 (4) (200 μM-1 μM), 5% DMSO, 10 mM citric buffer, pH 5.0, 4 h, 37° C. The DNA was analyzed by native, 0.2% NaOH, 0.4% NaOH, and 1% NaOH denaturing agarose gel electrophoresis (90 V, 1.5 h). Linear=linearized DNA in native form, linear-denat.=linearized DNA in denaturing form, linear-XL=linerized DNA cross-linked by colibactins or cisplatin.
# FIG. 11 depicts the DNA cross-linking assay employing linear pUC19 DNA and synthetic colibactin fragments 23, 24, and 22. Specifically, 5% DMSO was used as vehicle (negative control), and 100 μM cisplatin was used as positive control. DNA ladder (Lane #1); 5% DMSO (Lane #2); 100 μM cisplatin (Lane #3); 500 μM 23 (Lane #4); 100 μM 23 (Lane #5); 10 μM 23 (Lane #6); 1 μM 23 (Lane #7); 100 nm 23 (Lane #8); 500 μM 24 (Lane #9); 100 μM 24 (Lane #10); 10 μM 24 (Lane #11); 1 μM 24 (Lane #12); 100 nm 24 (Lane #13); 500 μM 22 (Lane #14); 100 μM 22 (Lane #15); 10 μM 22 (Lane #16); 1 μM 22 (Lane #17); 100 nm 22 (Lane #18). Conditions (Lane #2): linearized pUC19 DNA (15.4 μM in base pairs), 5% DMSO (vehicle), 10 mM citric buffer, pH 5.0, 4 h, 37° C. Conditions (Lane #3): linearized pUC19 DNA (15.4 μM in base pairs), 5% DMSO (vehicle), 100 μM cisplatin, 10 mM citric buffer, pH 5.0, 4 h, 37° C. Conditions (Lanes #4-#8): linearized pUC19 DNA (15.4 μM in base pairs), 23 (500 μM-100 nM), 5% DMSO, 10 mM citric buffer, pH 5.0, 4 h, 37° C. Conditions (Lanes #9-#13): linearized pUC19 DNA (15.4 μM in base pairs), 24 (500 μM-1 μM), 5% DMSO, 10 mM citric buffer, pH 5.0, 4 h, 37° C. Conditions (Lanes #14-#18): linearized pUC19 DNA (15.4 μM in base pairs), 22 (500 μM-100 nM), 5% DMSO, 10 mM citric buffer, pH 5.0, 4 h, 37° C. The DNA was analyzed by native, 0.2% NaOH, 0.4% NaOH, and 1% NaOH denaturing agarose gel electrophoresis (90 V, 1.5 h). Linear=linearized DNA in native form, linear-denat.=linearized DNA in denaturing form, linear-XL=DSB/linerized DNA cross-linked by colibactins or cisplatin. […]
SMILES,"DNA interstrand cross-link (ICL) formation (pH 5.0, 4 h, 37° C.)","DNA interstrand cross-link (ICL) formation (pH 7.0, 1 nM-100 μM)",concentration inducing stable DNA ICLs relative to 3a (pH 5.0),"stability of the ICLs under increasingly stringent denaturing conditions (pH 5.0, native, 0.2%, 0.4%, 1% NaOH gels)",DNA alkylation
C[C@H]1CCC(CC(=O)NC2(C(=O)CC(=O)NCC(=O)c3csc(CCc4csc(CNC(=O)CC(=O)C5(NC(=O)CC6=N[C@@H](C)CC6)CC5)n4)n3)CC2)=N1 [compound 9],induced stable DNA ICLs,induced stable ICLs,ten-fold lower,comparable to those derived from 3a,
C[C@H]1CCC(C2=C(CC(=O)NCC(=O)c3csc(CCc4csc(CNC(=O)CC5=C(C6=N[C@@H](C)CC6)C(=O)NC5(C)C)n4)n3)C(C)(C)NC2=O)=N1 [compound 22],failed to form DNA ICLs,,,,lack of DNA alkylation
"CCOC(=O)c1csc(CNC(=O)CC2=C(C3=N[C@@H](C)CC3)C(=O)NC23CC3)n1 [compound 23, reference compound]",failed to form DNA ICLs,,,,
CCOC(=O)c1nc(C2(O)CNC(=O)C2C2=C(C3=N[C@@H](C)CC3)C(=O)NC23CC3)cs1 (some centres unmarked) [compound 24],failed to form DNA ICLs,,,,
